Experimental findings from patent US12528814B2, “Bifunctional degraders of interleukin-1 receptor-associated kinases and therapeutic use thereof” (NURIX THERAPEUTICS, INC., priority 2020, dated 2026) are described below.

The target in test [1] is T1, IRAK4 (Homo sapiens (Human), UniProt Q9NWZ3). Nature of the test: IRAK4 Biochemical HTRF Kinase Assay. The settings on record: read-out: IRAK4 HTRF biochemical: IC50. Here is the method: IRAK4 Biochemical HTRF Kinase Assay
The binding capacities of certain bifunctional compounds of Formula (I) were determined using the CisBio HTRF KinEASE STK S1 Kit (#62ST1PEB, contains 5× Kinase buffer, 1× Detection Buffer, anti-phospho-serine/threonine-cryptate, Streptavidin-XL665, and STK-S1), which measures the phosphorylation of a biotinylated peptide substrate by IRAK4, according to the manufacturer's protocol. […] 2 μl of a reaction solution containing 5 μM STK-S1, 10 mM ATP, and 10 mM MgCl2 were added to each well to a final volume of 10 μl. Assay controls include wells containing kinase with no compound (DMSO only) and wells containing no kinase and no compound (DMSO only). The reactions were allowed to proceed at ambient temperature for 90 minutes. […] The plates were incubated for 60 minutes at ambient temperature and then read on an Envision Multilabel Reader (PerkinElmer). […] For IC50 determination, the compounds were tested at sixteen concentrations in duplicate and curve-fitting was performed by non-linear regression analysis using GraphPad Priam.
For orientation: TR-FRET usually uses a lanthanide donor and a delayed reading to cut background.
Target sequence in this assay (Q9NWZ3 whole entry, species assumed): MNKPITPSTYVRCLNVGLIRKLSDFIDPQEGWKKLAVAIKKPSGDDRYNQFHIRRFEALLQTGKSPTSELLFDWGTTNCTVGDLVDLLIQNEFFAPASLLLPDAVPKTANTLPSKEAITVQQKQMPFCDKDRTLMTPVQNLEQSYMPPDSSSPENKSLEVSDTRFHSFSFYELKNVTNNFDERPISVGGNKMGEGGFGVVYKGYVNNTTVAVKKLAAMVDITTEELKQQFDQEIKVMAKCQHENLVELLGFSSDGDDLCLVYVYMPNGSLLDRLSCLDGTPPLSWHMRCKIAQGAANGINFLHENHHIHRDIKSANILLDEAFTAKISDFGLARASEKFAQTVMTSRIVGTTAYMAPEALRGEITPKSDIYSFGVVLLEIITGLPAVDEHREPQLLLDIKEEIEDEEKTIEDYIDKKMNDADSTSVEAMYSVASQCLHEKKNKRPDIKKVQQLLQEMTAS

For test [2], the target named is T1, IRAK4. Put plainly: IRAK4 Degradation HiBiT Assay. As to conditions: HiBiT-tagged Jurkat cells, 4 hrs; for Dmax: Jurkat; for DC50: read-out: Cellular IRAK4 HiBiT: DC50. A general note: With HiBiT, luminescence reflects the tagged protein that the partner subunit can reach.
Target sequence in this assay (Q9NWZ3 whole entry): as the sequence (Q9NWZ3 whole entry, species assumed) above
[3] abbreviates: read-out: Cellular IRAK4 HiBiT: Dmax, Table 5, multiple runs.
The mark [4] stands for this setting: read-out: Cellular IRAK4 HiBiT: Dmax, Table 4.

Where two headings read alike, the source gives them in different places.

In general, IC50 refers to the midpoint of a concentration-inhibition curve. For orientation: Dmax means the greatest extent of degradation seen. The DC50 is the concentration giving 50% degradation. As for `CNc1cc(-c2ccc3cc(C#N)cnn23)ncc1-c1nnc(C23CCC(NC(=O)[C@H]4C[C@H]4C(=O)N[C@H](C(=O)N4C[C@H](O)C[C@H]4C(=O)N[C@@H](C)c4ccc(-c5scnc5C)cc4)C(C)(C)C)(CC2)CC3)s1` (mixture of isomers) [Example 142, (1RS,2SR)—N1-(4-(5-(6-(3-cyanopyrrolo[1,2-b]pyridazin-7-yl)-4-(methylamino)pyridin-3-yl)-1,3,4-thiadiazol-2-yl)bicyclo[2.2.2]octan-1-yl)-N2—((S)-1-((2S,4R)-4-hydroxy-2-(((S)-1-(4-(4-methylthiazol-5-yl)phenyl)ethyl)carbamoyl)pyrrolidin-1-yl)-3,3-dimethyl-1-oxobutan-2-yl)cyclopropane-1,2-dicarboxamide], the IC50 on IRAK4 [1] (Table 5, multiple runs) came out at 1.9 nM. For the same compound, the Dmax on IRAK4 [2] (setting [3]) is 115%. Moreover, at IRAK4 [2] (Table 5, multiple runs), the DC50 is 258 nM.

As for `CNc1cc(-c2ccc3cc(C#N)cnn23)ncc1-c1nnc(C23CCC(NC(=O)[C@H]4CC[C@H]4C(=O)N[C@H](C(=O)N4C[C@H](O)C[C@H]4C(=O)N[C@@H](C)c4ccc(-c5scnc5C)cc4)C(C)(C)C)(CC2)CC3)s1` (mixture of isomers) [Example 144, (1RS,2SR)—N1-(4-(5-(6-(3-cyanopyrrolo[1,2-b]pyridazin-7-yl)-4-(methylamino)pyridin-3-yl)-1,3,4-thiadiazol-2-yl)bicyclo[2.2.2]octan-1-yl)-N2—((S)-1-((2S,4R)-4-hydroxy-2-(((S)-1-(4-(4-methylthiazol-5-yl)phenyl)ethyl)carbamoyl)pyrrolidin-1-yl)-3,3-dimethyl-1-oxobutan-2-yl)cyclobutane-1,2-dicarboxamide], the half-maximal inhibitory concentration (IC50) on IRAK4 [1] (Table 5, multiple runs) was 1.5 nM. For the same compound, on IRAK4 [2] (setting [3]), the Dmax was 89%. In addition, on IRAK4 [2] (Table 5, multiple runs), the DC50 came out at 429 nM.

For `CNc1cc(-c2ccc3cc(C#N)cnn23)ncc1-c1nnc([C@H]2CC[C@H](NC(=O)[C@H]3CC[C@H]3C(=O)N[C@H](C(=O)N3C[C@H](O)C[C@H]3C(=O)N[C@@H](C)c3ccc(-c4scnc4C)cc3)C(C)(C)C)CC2)s1` (racemic) [Example 143, (1RS,2SR)—N1-((1r,4R)-4-(5-(6-(3-cyanopyrrolo[1,2-b]pyridazin-7-yl)-4-(methylamino)pyridin-3-yl)-1,3,4-thiadiazol-2-yl)cyclohexyl)-N2—((S)-1-((2S,4R)-4-hydroxy-2-(((S)-1-(4-(4-methylthiazol-5-yl)phenyl)ethyl)carbamoyl)pyrrolidin-1-yl)-3,3-dimethyl-1-oxobutan-2-yl)cyclobutane-1,2-dicarboxamide], on IRAK4 [1] (Table 5, multiple runs), the IC50 was 1.6 nM. Moreover, on IRAK4 [2] (setting [3]), the Dmax turned out to be 37%. Also, the DC50 at IRAK4 [2] (Table 5, multiple runs) amounted to 870 nM.

As for `CNc1cc(-c2ccc3cc(C#N)cnn23)ncc1-c1nnc(C2CCC(NC(=O)[C@H]3C[C@H]3C(=O)N[C@H](C(=O)N3C[C@H](O)C[C@H]3C(=O)N[C@@H](C)c3ccc(-c4scnc4C)cc3)C(C)(C)C)CC2)s1` (mixture of isomers) [Example 147, (1RS,2SR)—N1-((1r,4R)-4-(5-(6-(3-cyanopyrrolo[1,2-b]pyridazin-7-yl)-4-(methylamino)pyridin-3-yl)-1,3,4-thiadiazol-2-yl)cyclohexyl)-N2—((S)-1-((2S,4R)-4-hydroxy-2-(((S)-1-(4-(4-methylthiazol-5-yl)phenyl)ethyl)carbamoyl)pyrrolidin-1-yl)-3,3-dimethyl-1-oxobutan-2-yl)cyclopropane-1,2-dicarboxamide], on IRAK4 [1] (Table 5, multiple runs), the IC50 is 1.5 nM. Moreover, the Dmax on IRAK4 [2] (setting [3]) was 80%. Also, on IRAK4 [2] (Table 5, multiple runs), the DC50 was determined as 508 nM.

Consider `N#Cc1cnn2c(-c3cc(NC4CCOCC4)c(-c4nnc(C56CCC(NC(=O)CCOCCOCCNc7cccc8c7C(=O)N(C7CCC(=O)NC7=O)C8=O)(CC5)CC6)s4)cn3)ccc2c1` (centres unmarked) [Example 1, N-(4-(5-(6-(3-cyanopyrrolo[1,2-b]pyridazin-7-yl)-4-((tetrahydro-2H-pyran-4-yl)amino)pyridin-3-yl)-1,3,4-thiadiazol-2-yl)bicyclo[2.2.2]octan-1-yl)-3-(2-(2-((2-(2,6-dioxopiperidin-3-yl)-1,3-dioxoisoindolin-4-yl)amino)ethoxy)ethoxy)propanamide], for which the IC50 on IRAK4 [1] (Table 4) is 1.8 nM; at IRAK4 [1] (Table 5, multiple runs), 2 nM. Moreover, the Dmax was 65% at IRAK4 [2] (setting [4]) and 60% at IRAK4 [2] (setting [3]). Besides, the DC50 came out at 23.8 nM on IRAK4 [2] (Table 4) and 22.9 nM on IRAK4 [2] (Table 5, multiple runs).

Regarding `N#Cc1cnn2c(-c3cc(NC4CCOCC4)c(-c4nnc(C56CCC(NC(=O)CCOCCOCCOCCNc7cccc8c7C(=O)N(C7CCC(=O)NC7=O)C8=O)(CC5)CC6)s4)cn3)ccc2c1` (centres unmarked) [Example 2, N-(4-(5-(6-(3-cyanopyrrolo[1,2-b]pyridazin-7-yl)-4-((tetrahydro-2H-pyran-4-yl)amino)pyridin-3-yl)-1,3,4-thiadiazol-2-yl)bicyclo[2.2.2]octan-1-yl)-3-(2-(2-(2-((2-(2,6-dioxopiperidin-3-yl)-1,3-dioxoisoindolin-4-yl)amino)ethoxy)ethoxy)ethoxy)propanamide], the IC50 on IRAK4 [1] (Table 4) came out at 1.6 nM; at IRAK4 [1] (Table 5, multiple runs), 1.8 nM. Besides, the Dmax on IRAK4 [2] (setting [4]) stood at 71%; at IRAK4 [2] (setting [3]), 75%. Also, the DC50 on IRAK4 [2] (Table 4) was determined as 27.8 nM; at IRAK4 [2] (Table 5, multiple runs) it was 27.2 nM.

As for `CC(C)Nc1cc(-c2ccc3cc(C#N)cnn23)ncc1-c1nnc([C@H]2CC[C@H](NC(=O)CCOCCOCCNc3cccc4c3C(=O)N(C3CCC(=O)NC3=O)C4=O)CC2)s1` (some centres unmarked) [Example 3, N-((1r,4r)-4-(5-(6-(3-cyanopyrrolo[1,2-b]pyridazin-7-yl)-4-(isopropylamino)pyridin-3-yl)-1,3,4-thiadiazol-2-yl)cyclohexyl)-3-(2-(2-((2-(2,6-dioxopiperidin-3-yl)-1,3-dioxoisoindolin-4-yl)amino)ethoxy)ethoxy)propanamide], the IC50 is 2.3 nM at IRAK4 [1] (Table 4) and 1.9 nM on IRAK4 [1] (Table 5, multiple runs). In addition, the results for the Dmax on IRAK4 [2] (setting [4]) and on IRAK4 [2] (setting [3]) were 91% and 90%, respectively. Moreover, the DC50 stood at 32 nM at IRAK4 [2] (Table 4) and 30.1 nM at IRAK4 [2] (Table 5, multiple runs).

Regarding `CC(C)Nc1cc(-c2ccc3cc(C#N)cnn23)ncc1-c1nnc([C@H]2CC[C@H](NC(=O)CCOCCOCCOCCNc3cccc4c3C(=O)N(C3CCC(=O)NC3=O)C4=O)CC2)s1` (some centres unmarked) [Example 4, N-((1r,4r)-4-(5-(6-(3-cyanopyrrolo[1,2-b]pyridazin-7-yl)-4-(isopropylamino)pyridin-3-yl)-1,3,4-thiadiazol-2-yl)cyclohexyl)-3-(2-(2-(2-((2-(2,6-dioxopiperidin-3-yl)-1,3-dioxoisoindolin-4-yl)amino)ethoxy)ethoxy)ethoxy)propanamide], the half-inhibitory concentration (IC50) turned out to be 1.8 nM on IRAK4 [1] (Table 4) and 1.7 nM on IRAK4 [1] (Table 5, multiple runs). Also, the Dmax is 97% at IRAK4 [2] (setting [4]) and 98% at IRAK4 [2] (setting [3]). For the same compound, the DC50 on IRAK4 [2] (Table 4) is 51.8 nM; at IRAK4 [2] (Table 5, multiple runs) it was 52.5 nM.

For the compound `CC(C)Nc1cc(-c2ccc3cc(C#N)cnn23)ncc1-c1nnc(N2CCN(C(=O)CCCCCCCNc3ccc4c(c3)C(=O)N(C3CCC(=O)NC3=O)C4=O)CC2)s1` (centres unmarked) [Example 5, 7-(5-(5-(4-(8-((2-(2,6-dioxopiperidin-3-yl)-1,3-dioxoisoindolin-5-yl)amino)octanoyl)piperazin-1-yl)-1,3,4-thiadiazol-2-yl)-4-(isopropylamino)pyridin-2-yl)pyrrolo[1,2-b]pyridazine-3-carbonitrile], the IC50 was 3.8 nM at IRAK4 [1] (Table 4) and 3.9 nM on IRAK4 [1] (Table 5, multiple runs). Also, the Dmax on IRAK4 [2] (setting [4]) and on IRAK4 [2] (setting [3]) was 57% in each case. In addition, the DC50 at IRAK4 [2] (Table 4) turned out to be 84 nM; at IRAK4 [2] (Table 5, multiple runs), 71.2 nM.

Turning to `CC(C)Nc1cc(-c2ccc3cc(C#N)cnn23)ncc1-c1nnc(N2CCN(C(=O)CCCCCNc3ccc4c(c3)C(=O)N(C3CCC(=O)NC3=O)C4=O)CC2)s1` (centres unmarked) [Example 6, 7-(5-(5-(4-(6-((2-(2,6-dioxopiperidin-3-yl)-1,3-dioxoisoindolin-5-yl)amino)hexanoyl)piperazin-1-yl)-1,3,4-thiadiazol-2-yl)-4-(isopropylamino)pyridin-2-yl)pyrrolo[1,2-b]pyridazine-3-carbonitrile], the IC50 on IRAK4 [1] (Table 4) came to 2.6 nM; on IRAK4 [1] (Table 5, multiple runs), 2.6 nM. The Dmax stood at 82% on IRAK4 [2] (setting [4]) and 69% at IRAK4 [2] (setting [3]). Besides, the DC50 on IRAK4 [2] (Table 4) turned out to be 74.6 nM; at IRAK4 [2] (Table 5, multiple runs), 70 nM.

Take `CNc1cc(-c2ccc3cc(C#N)cnn23)ncc1-c1nnc(C23CCC(NC(=O)C4CCN(c5cccc6c5C(=O)N(C5CCC(=O)NC5=O)C6=O)CC4)(CC2)CC3)s1` (centres unmarked) [Example 136, N-(4-(5-(6-(3-cyanopyrrolo[1,2-b]pyridazin-7-yl)-4-(methylamino)pyridin-3-yl)-1,3,4-thiadiazol-2-yl)bicyclo[2.2.2]octan-1-yl)-1-(2-(2,6-dioxopiperidin-3-yl)-1,3-dioxoisoindolin-4-yl)piperidine-4-carboxamide]: the Dmax on IRAK4 [2] (setting [3]) stood at 35%. Besides, the DC50 on IRAK4 [2] (Table 5, multiple runs) turned out to be 21.9 nM.
